{"source": "paper PMC5225183", "about": "“Fingerprinting of neurotoxic compounds using a mouse embryonic stem cell dual luminescence reporter assay” (Archives of Toxicology, 2016)", "key": {"[1]": {"test_system": "undifferentiated pluripotent stem cells (ESCs)", "assay": "Dual luminescence reporter test system, undifferentiated ESCs (readout not separated)", "assay_type": "cell-based, mouse", "details": "for In vitro EC20 in ESC: in vitro toxicity data expressed as EC20; for effect on promoter activities in undifferentiated cells: non-cytotoxic concentrations", "description": "(§1) Fig. 1 Synopsis of experimental protocols. The impact of compounds on neural promoter activity (FLuc, Firefly Luciferase under the control of the Tα1 promoter), general promoter activity (RLuc, Renilla Luciferase under the control of the EF1α promoter), and amount of DNA (PI, propidium iodide fluorescence in cell homogenates) was investigated in undifferentiated mouse embryonic pluripotent stem cells (ESCs) and on ESC-derived neurons. Arrows indicate the time of measurement of the three parameters. a Protocol for testing compounds effects on ESCs. CGR8-2Luc cells were plated on gelatin-coated 96-well plates in maintenance medium (BHK21 medium containing 10 % FCS, L-glutamine, NEAA, P/S, and LIF). Twenty-four hours later, cells were exposed to compounds for forty-eight hours. b Protocol for testing compounds on ESC-derived neurons. CGR8-2Luc cells were co-cultured with MS5 cells to induce neural differentiation in DMEM medium containing 15 % KO-serum, NEAA, β-mercaptoethanol, and P/S. On day 5, cells were detached and seeded on polyornithine-coated plates in DMEM medium containing N2 supplement, bFGF, and P/S; compound exposure was from day 6 to day 8\n(§2) To test compounds on ESC-derived neurons, neuronal differentiation was carried out as previously described (Suter et al. [2009]; Xu et al. [2014]). Briefly, CGR8-2Luc cells were seeded on irradiated bone marrow-derived stromal MS5 cells and cultivated for 4 days in DMEM medium containing 15 % Knock-out™ Serum Replacement, non-essential amino acids, beta-mercaptoethanol, and penicillin/streptomycin. At day 5, cells were then re-plated (3 × 10^5 cells/cm^2) on polyornithine-coated 96-well plates in N2 medium containing DMEM, N2 supplement, penicillin/streptomycin, and 10 ng/ml basic human fibroblast growth factor (bFGF) (Invitrogen). […] To assess toxicity of compounds on undifferentiated pluripotent stem cells (ESCs), CGR8-2Luc cells were plated at 45,000 cells/cm^2 on 0.1 % gelatin-coated dishes in BHK21 medium, supplemented with 10 % fetal calf serum, L-glutamine, non-essential amino acids, penicillin/streptomycin, and leukemia inhibitory factor (LIF). After 24 h, compounds were added and incubated for 48 h, before luciferase expression and PI fluorescence were analyzed. In all experiments, methylmercury was used as a positive control at a concentration of 5 µM.\n(§3) Luciferase activities were measured with a Dual-Luciferase™ Reporter system kit. CGR8-2Luc ES cells were lysed in 96-well plates according to the manufacturer’s instructions. Luminescence measurements were performed on a Fluostar Optima reader. Luminescence counts were expressed as percentage of promoter activity normalized by comparison with the control wells treated by DMSO. […] parameters were measured in homogenates of ESCs and in ESC-derived neurons: (1) FLuc, reflecting the activity of early neural promoter Tα1. FLuc increases during neuronal differentiation. Many neurotoxic compounds may affect FLuc expression, either through impact on neuronal differentiation, through changes of neuronal gene expression, or through killing of neurons.\nAfter measurement of luciferase activity, DNA quantity was determined by PI assay, as previously described (Xu et al. [2014]). PI was added to cell homogenates after the luciferase test, at a final concentration of 50 µg/ml and incubated for 2 h. After incubation, fluorescence intensity was measured on a Flexstation 3 microplate reader (Excitation: 544 nm ± 15 nm; Emission: 620 nm ± 15 nm). Results are expressed as percentage of control. Propidium iodide (PI) measures total DNA content as an approximation of the cell number."}, "ESC-derived neurons": {"test_system": "ESC-derived neurons", "details": "for In vitro EC20 in ESC-derived neurons: in vitro toxicity data expressed as EC20", "description": "as §1, §2, §3\nAfter measurement of luciferase activity, DNA quantity was determined by PI assay, as previously described (Xu et al. [2014]). […] After incubation, fluorescence intensity was measured on a Flexstation 3 microplate reader (Excitation: 544 nm ± 15 nm; Emission: 620 nm ± 15 nm). Results are expressed as percentage of control. […]"}, "[2]": {"assay": "PBPK reverse modeling of nominal equivalent concentration (NEC), rat data", "procedure": "The lipid content and albumin concentrations of the test media N2 and BHK medium were calculated on the basis of the available information provided by the suppliers (Fig. S2A). The data on rat plasma have been adopted from (Verwei et al. [2006]). The original references are (Barber et al. [1990]) for albumin and (DeJongh et al. [1997]) for lipids. Human plasma values were taken from (Gulden and Seibert [2003]). The original data on albumin are from (Lindup [1987]) and for lipids from (Patterson et al. [1988]). Total protein concentrations were calculated based on the assumption that the protein molar mass is similar to the one of albumin (66 kDa). Albumin was assumed to represent 60 and 48 % of the total serum proteins (mg/ml) in human and rat (Baker et al. [1979]; Busher [1990]) (Fig. S2A).\n(a) Developmental toxicity (DT)—inducing concentrations were extrapolated from the in vivo study reported in the document by the Australian Therapeutic Goods Administration (Australian Therapeutic Goods Administration [2014]). […] (b) Toxicokinetic parameters of abiraterone in rats were extracted from the available report from the TGA (Australian Therapeutic Goods Administration [2014]). […] (c) The nominal in vitro concentrations equivalent to the concentration used in vivo were calculated using the value of total protein concentration instead of albumin concentration. […]\n(c) The nominal in vitro concentrations equivalent to the concentration used in vivo in rats and humans (Cmax and Cavg) were determined assuming only binding to the specific drug-binding proteins (albumin and/or α1-acid glycoprotein) (Fig. S2D)."}, "[3]": {"details": "cited from earlier work"}, "plasma protein": {"test_system": "plasma protein", "details": "cited from earlier work; for fb,pl (plasma bound fraction): extracted from the literature (geldanamycin value assumed)"}, "[4]": {"details": "extracted from the literature; cited from earlier work"}}, "data": [{"smiles": "C[C@]12CC[C@H](O)CC1=CC[C@@H]1[C@@H]2CC[C@]2(C)C(c3cccnc3)=CC[C@@H]12", "note": "[Abiraterone]", "values": [{"measurement": "In vitro EC20 in ESC", "setting": "[1]", "value": 2, "unit": "µM"}, {"measurement": "concentration affecting neural differentiation (decrease of neuronal and general promoter activities)", "setting": "ESC-derived neurons; ESC-derived neurons, no change in cell number", "value": "higher than 0.5 µM"}, {"measurement": "In vitro EC20 in ESC-derived neurons", "setting": "ESC-derived neurons", "value": 0.7, "unit": "µM"}, {"measurement": "Free concentration in vivo", "setting": "[2]; Cavg", "value": "1.68e-05", "unit": "nM"}, {"measurement": "Total concentration in vivo (ECpl)", "setting": "[2]; Cavg", "value": 0.00401, "unit": "µM"}, {"measurement": "Free concentration in vivo", "setting": "[2]; Cmax", "value": 0.00013, "unit": "nM"}, {"measurement": "Total concentration in vivo (ECpl)", "setting": "[2]; Cmax", "value": 0.0309, "unit": "µM"}, {"measurement": "AUC at steady state", "setting": "[3]; humans, daily oral dose of 1000 mg as abiraterone acetate, ref Goldberg and Berrios-Colon [2013]", "value": 1.173, "unit": "µg·h/mL"}, {"measurement": "Cmax", "setting": "[3]; humans, daily oral dose of 1000 mg/kg as abiraterone acetate, ref Goldberg and Berrios-Colon [2013]", "value": 0.226, "unit": "µg/mL"}, {"measurement": "fb,pl (plasma bound fraction)", "setting": "plasma protein", "value": 0.998}, {"measurement": "percentage of plasma protein binding", "setting": "plasma protein; without relevant species differences, ref US FDA [2011]", "value": 99.8, "unit": "%"}, {"measurement": "Kow (octanol:water partition coefficient)", "setting": "[4]", "value": 131826}]}, {"smiles": "O=C(/C=C/c1cccc(S(=O)(=O)Nc2ccccc2)c1)NO", "note": "[Belinostat]", "values": [{"measurement": "effect on promoter activities in undifferentiated cells", "setting": "[1]", "value": "enhanced the activities of neuronal and/or general promoters"}]}, {"smiles": "Nc1ccccc1NC(=O)c1ccc(CNC(=O)OCc2cccnc2)cc1", "note": "[Entinostat]", "values": [{"measurement": "effect on promoter activities in undifferentiated cells", "setting": "[1]", "value": "enhanced the activities of neuronal and/or general promoters"}]}, {"smiles": "COC1=C2C[C@@H](C)C[C@H](OC)[C@H](O)[C@@H](C)/C=C(\\C)[C@H](OC(N)=O)[C@@H](OC)/C=C\\C=C(/C)C(=O)NC(=CC1=O)C2=O", "note": "[Geldanamycin]", "values": [{"measurement": "In vitro EC20 in ESC", "setting": "[1]", "value": 0.01, "unit": "µM"}, {"measurement": "In vitro EC20 in ESC-derived neurons", "setting": "ESC-derived neurons", "value": 0.001, "unit": "µM"}, {"measurement": "Free concentration in vivo", "setting": "[2]; Cmax", "value": 8.91, "unit": "nM"}, {"measurement": "Total concentration in vivo (ECpl)", "setting": "[2]; Cmax", "value": 2.23, "unit": "µM"}, {"measurement": "fb,pl (plasma bound fraction)", "setting": "plasma protein", "value": 0.990}, {"measurement": "Kow (octanol:water partition coefficient)", "setting": "[4]", "value": 417}]}, {"smiles": "[Br][Hg][Br]", "note": "[Mercury bromide]", "values": [{"measurement": "concentration up to which neurons were not affected", "setting": "ESC-derived neurons", "value": 5000, "unit": "nM"}]}, {"smiles": "C/C(O)=C(\\C#N)C(=O)Nc1ccc(C(F)(F)F)cc1", "note": "[Teriflunomide]", "values": [{"measurement": "In vitro EC20 in ESC", "setting": "[1]", "value": "4 to 40", "unit": "µM"}, {"measurement": "In vitro EC20 in ESC-derived neurons", "setting": "ESC-derived neurons", "value": "10 to 20", "unit": "µM"}, {"measurement": "Free concentration in vivo", "setting": "[2]; Cavg", "value": 11.7, "unit": "nM"}, {"measurement": "Total concentration in vivo (ECpl)", "setting": "[2]; Cavg", "value": 5.09, "unit": "µM"}, {"measurement": "Free concentration in vivo", "setting": "[2]; Cmax", "value": 25.6, "unit": "nM"}, {"measurement": "Total concentration in vivo (ECpl)", "setting": "[2]; Cmax", "value": 11.1, "unit": "µM"}, {"measurement": "24 h AUC at steady state", "setting": "[3]; healthy individuals, daily oral dose of 14 mg, ref Australian Therapeutic Goods Administration [2013]", "value": 1070, "unit": "µg·h/mL"}, {"measurement": "fb,pl (plasma bound fraction)", "setting": "plasma protein", "value": 0.995}, {"measurement": "average bound fraction in plasma", "setting": "plasma protein; ref Russo et al. [2013]", "value": 99.46, "unit": "%"}, {"measurement": "Kow (octanol:water partition coefficient)", "setting": "[4]", "value": 327}]}, {"smiles": "CCCC(CCC)C(=O)O", "note": "[Valproic acid]", "values": [{"measurement": "effect on promoter activities in undifferentiated cells", "setting": "[1]", "value": "enhanced the activities of neuronal and/or general promoters"}]}]}
